Measurements reported in patent US11684593B2 (GENEHEAL BIOTECHNOLOGY CO., LTD., priority 2017, dated 2023).

How the values were obtained:
[1] = test system: lung cancer cell strain H1299; test: cells; settings: Homo sapiens, NCI-H1299, 48 h
[2] = test system: lung cancer cell strain A549; test: cells; settings: Homo sapiens, A549, 48 h
[3] = test system: oncogene myc; settings: Western Blot, FIG. 4
[4] = target: PAICS (Homo sapiens, UniProt P22234)
[5] = test system: breast cancer cell strain MD231; test: cells; settings: 48 h
[6] = test system: breast cancer cell strain MD468; test: cells; settings: 48 h

Sequence of PAICS (P22234 whole entry): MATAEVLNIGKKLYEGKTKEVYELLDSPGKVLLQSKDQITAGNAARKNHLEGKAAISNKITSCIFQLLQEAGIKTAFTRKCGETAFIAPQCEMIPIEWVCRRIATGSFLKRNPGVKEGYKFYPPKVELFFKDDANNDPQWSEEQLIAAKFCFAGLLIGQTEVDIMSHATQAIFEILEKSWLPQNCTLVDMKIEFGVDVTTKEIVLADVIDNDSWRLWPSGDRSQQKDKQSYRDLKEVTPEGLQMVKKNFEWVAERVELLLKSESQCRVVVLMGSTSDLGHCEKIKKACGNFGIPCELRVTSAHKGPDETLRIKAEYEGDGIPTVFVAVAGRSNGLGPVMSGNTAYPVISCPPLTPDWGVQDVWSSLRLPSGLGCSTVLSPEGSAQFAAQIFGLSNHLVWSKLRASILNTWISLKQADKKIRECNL

Compound: NCCCNCCCCNCCCN [spermine]
- IC50 [1]: 25.2 µM
- IC50 [2]: 117 µM
- expression of oncogene myc [3]: significantly down-regulated
- inhibition of the accumulation of SAICAR [4]: up to 71.1%
- IC50 [5]: 3.55 µM
- IC50 [6]: 38 µM
